Data from patent publication US20070049593A1 (priority 2004, published 2007).
Where a name gives a salt, the structure may show the parent alone.

These compounds were tested against T1, HCV polymerase (Hepatitis C virus genotype 1b, UniProt P26663) (assay: biochemical). Details: not given.
T1 construct: a region encoding NS5B (J Virol 1991 March, 65(3), 1105-13, 544 amino acids after deletion of 47 amino acids on the C-terminal); 6xHis (C); made in house; host or cells: Escherichia coli
T1 sequence (P26663 2420-2963): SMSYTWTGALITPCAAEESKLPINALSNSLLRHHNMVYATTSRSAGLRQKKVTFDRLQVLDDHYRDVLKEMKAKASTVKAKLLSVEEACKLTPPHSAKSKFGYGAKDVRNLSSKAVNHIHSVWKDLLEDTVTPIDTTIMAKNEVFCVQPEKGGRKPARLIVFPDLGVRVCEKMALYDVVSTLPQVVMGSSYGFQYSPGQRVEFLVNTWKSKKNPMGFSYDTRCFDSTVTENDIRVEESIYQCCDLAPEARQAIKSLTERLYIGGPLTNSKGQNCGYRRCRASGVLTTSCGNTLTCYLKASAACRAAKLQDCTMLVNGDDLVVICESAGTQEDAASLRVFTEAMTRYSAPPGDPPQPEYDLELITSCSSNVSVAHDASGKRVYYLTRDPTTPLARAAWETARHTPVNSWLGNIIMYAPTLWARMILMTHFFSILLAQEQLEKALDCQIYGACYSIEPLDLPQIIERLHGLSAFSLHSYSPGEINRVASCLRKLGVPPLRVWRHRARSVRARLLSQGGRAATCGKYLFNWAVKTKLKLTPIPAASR
Parameters: species or system HCV BK strain
In short: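 Recombinant HCV BK-strain NS5B (C-terminal 47 aa deleted, His6-tagged, E. coli), 0.5 μg/ml, run with 5 μg/ml in vitro-transcribed RNA template (polyU/3′X), ATP/GTP/CTP 50 μM, UTP 2 μM plus [3H]UTP, pH 7.5, 25° C, 90 min. TCA-precipitated RNA counted by scintillation; IC50 from activity with vs without compound.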
With `CC(C)(CN1CCN(CCO)CC1)NC(=O)c1ccc2c(C3CCCCC3)c3n(c2c1)CCOc1ccccc1-3` [Example 2-244, N-{2-[4-(2-hydroxyethyl)piperazin-1-yl]-1,1-dimethylethyl}-12-cyclohexyl-6,7-dihydro-5-oxa-7a-azadibenzo[a,e]azulene-9-carboxamide] the IC50 was 100 to 1000 nM.
For `O=C(N[C@H](Cc1ccc(O)cc1)C(=O)O)c1ccc2c(C3CCCCC3)c3n(c2c1)CCOc1ccccc1-3` [Example 2-246, (R)-2-[(12-cyclohexyl-6,7-dihydro-5-oxa-7a-azadibenzo[a,e]azulene-9-carbonyl)amino]-3-(4-hydroxyphenyl)propionic acid], the IC50 was less than 100 nM.
With `O=C(O)CN1CCC(NC(=O)c2ccc3c(C4CCCCC4)c4n(c3c2)CCOc2ccccc2-4)(c2nc3ccccc3[nH]2)CC1` [Example 2-247, {4-(1H-benzimidazol-2-yl)-4-[(12-cyclohexyl-6,7-dihydro-5-oxa-7a-azadibenzo[a,e]azulene-9-carbonyl)amino]piperidin-1-yl}acetic acid] the IC50 was less than 100 nM.
With `COC(=O)CN1CCC(NC(=O)c2ccc3c(C4CCCCC4)c4n(c3c2)CCOc2ccccc2-4)(c2nc3ccccc3[nH]2)CC1` [Example 2-248, methyl (4-(1H-benzimidazol-2-yl)-4-[(12-cyclohexyl-6,7-dihydro-5-oxa-7a-azadibenzo[a,e]azulene-9-carbonyl)amino]piperidin-1-yl]acetate monohydrochloride] the IC50 was less than 100 nM.
`Cn1c(CNC(=O)c2ccc3c(C4CCCCC4)c4n(c3c2)CCOc2ccccc2-4)nc2ccccc21` [Example 2-249, N-(1-methyl-1H-benzimidazol-2-ylmethyl)-12-cyclohexyl-6,7-dihydro-5-oxa-7a-azadibenzo[a,e]azulene-9-carboxamide] showed an IC50 of less than 100 nM.
For `O=C(O)Cn1c(CNC(=O)c2ccc3c(C4CCCCC4)c4n(c3c2)CCOc2ccccc2-4)nc2ccccc21` [Example 2-250, (2-{[(12-cyclohexyl-6,7-dihydro-5-oxa-7a-azadibenzo[a,e]azulene-9-carbonyl)amino]methyl}benzimidazol-1-yl)acetic acid], the IC50 was less than 100 nM.
Compound `COC(=O)Cn1c(CNC(=O)c2ccc3c(C4CCCCC4)c4n(c3c2)CCOc2ccccc2-4)nc2ccccc21` [Example 2-251, methyl (2-{[(12-cyclohexyl-6,7-dihydro-5-oxa-7a-azadibenzo[a,e]azulene-9-carbonyl)amino]methyl}benzimidazol-1-yl)acetate] has an IC50 of less than 100 nM.
`O=C(NCc1nc2ccccc2[nH]1)c1ccc2c(C3CCCCC3)c3n(c2c1)CCOc1ccccc1-3` [Example 2-252, N-(1H-benzimidazol-2-ylmethyl)-12-cyclohexyl-6,7-dihydro-5-oxa-7a-azadibenzo[a,e]azulene-9-carboxamide] gave an IC50 of less than 100 nM.
`CC(C)(CN/C=C/C(=O)O)NC(=O)c1ccc2c(C3CCCCC3)c3n(c2c1)CCOc1ccccc1-3` [Example 2-254, (E)-3-{2-[(12-cyclohexyl-6,7-dihydro-5-oxa-7a-azadibenzo[a,e]azulene-9-carbonyl)amino]-2-methylpropylamino}acrylic acid] was tested, and the IC50 was 100 to 1000 nM.
`CC(C)(CNc1ccc(C(=O)O)cn1)NC(=O)c1ccc2c(C3CCCCC3)c3n(c2c1)CCOc1ccccc1-3` [Example 2-255, 6-{2-[(12-cyclohexyl-6,7-dihydro-5-oxa-7a-azadibenzo[a,e]azulene-9-carbonyl)amino]-2-methylpropylamino}nicotinic acid] gave an IC50 of less than 100 nM.
For `O=C(O)c1ccc2c(C3CCCCC3)c3n(c2c1)CCOc1c-3cccc1N(CCOCc1ccccc1)CCN1CCCCC1` [Example 2-256, 4-{N-(2-benzyloxyethyl)-N-[2-(piperidin-1-yl)ethyl]amino}-12-cyclohexyl-6,7-dihydro-5-oxa-7a-azadibenzo[a,e]azulene-9-carboxylic acid dihydrochloride], the IC50 was less than 100 nM.
For `CC(C)OCCN(CCN1CCCCC1)c1cccc2c1OCCn1c-2c(C2CCCCC2)c2ccc(C(=O)O)cc21` [Example 2-257, 12-cyclohexyl-4-(N-(2-isopropoxyethyl)-N-[2-(piperidin-1-yl)ethyl]amino}-6,7-dihydro-5-oxa-7a-azadibenzo[a,e]azulene-9-carboxylic acid dihydrochloride], the IC50 was less than 100 nM.
Compound `Cc1nc(C(C)(C)NC(=O)c2ccc3c(C4CCCCC4)c4n(c3c2)CCOc2ccccc2-4)[nH]c1C` [Example 2-258, N-[1-(4,5-dimethyl-1H-imidazol-2-yl)-1-methylethyl]-12-cyclohexyl-6,7-dihydro-5-oxa-7a-azadibenzo[a,e]azulene-9-carboxamide] has an IC50 of less than 100 nM.
Work on `Cc1nc(C(C)(C)NC(=O)c2ccc3c(C4CCCCC4)c4n(c3c2)CCOc2ccccc2-4)n(C)c1C` [Example 2-259, N-[1-methyl-1-(1,4,5-trimethyl-1H-imidazol-2-yl)ethyl]-12-cyclohexyl-6,7-dihydro-5-oxa-7a-azadibenzo[a,e]azulene-9-carboxamide] yielded an IC50 of less than 100 nM.
Compound `CC(C)(NC(=O)c1ccc2c(C3CCCCC3)c3n(c2c1)CCOc1ccccc1-3)C(=O)Nc1cccc(O)c1` [Example 2-260, N-[1-(3-hydroxyphenylcarbamoyl)-1-methylethyl]-12-cyclohexyl-6,7-dihydro-5-oxa-7a-azadibenzo[a,e]azulene-9-carboxamide] has an IC50 of less than 100 nM.
`O=C(O)c1ccc2c(C3CCCCC3)c3n(c2c1)CCOc1c-3cccc1N(CCO)CCN1CCCCC1` [Example 2-261, 12-cyclohexyl-4-{N-(2-hydroxyethyl)-N-[2-(piperidin-1-yl)ethyl]amino}-6,7-dihydro-5-oxa-7a-azadibenzo[a,e]azulene-9-carboxylic acid dihydrochloride] gave an IC50 of less than 100 nM.
In the case of `COc1ccc2c(c1)OCCn1c-2c(C2CCCCC2)c2ccc(C(=O)N[C@@H](Cc3ccc(O)cc3)C(=O)N(C)C)cc21` [Example 2-262, N—[(S)-1-dimethylcarbamoyl-2-(4-hydroxyphenyl)ethyl]-12-cyclohexyl-3-methoxy-6,7-dihydro-5-oxa-7a-azadibenzo[a,e]azulene-9-carboxamide], the IC50 is reported as less than 100 nM.
Work on `CNC(=O)[C@H](Cc1ccc(O)cc1)NC(=O)c1ccc2c(C3CCCCC3)c3n(c2c1)CCOc1cc(OC)ccc1-3` [Example 2-263, N—[(S)-2-(4-hydroxyphenyl)-1-(methylcarbamoyl)ethyl]-12-cyclohexyl-3-methoxy-6,7-dihydro-5-oxa-7a-azadibenzo[a,e]azulene-9-carboxamide] yielded an IC50 of less than 100 nM.
`COC(=O)Cn1c(C(C)(C)NC(=O)c2ccc3c(C4CCCCC4)c4n(c3c2)CCOc2ccccc2-4)nc(C)c1C` [Example 2-264, methyl (2-{1-[(12-cyclohexyl-6,7-dihydro-5-oxa-7a-azadibenzo[a,e]azulene-9-carbonyl)amino]-1-methylethyl}-4,5-dimethylimidazol-1-yl)acetate] gave an IC50 of less than 100 nM.
Compound `Cc1nc(C(C)(C)NC(=O)c2ccc3c(C4CCCCC4)c4n(c3c2)CCOc2ccccc2-4)n(CC(=O)O)c1C` [Example 2-265, (2-{1-[(12-cyclohexyl-6,7-dihydro-5-oxa-7a-azadibenzo[a,e]azulene-9-carbonyl)amino]-1-methylethyl}-4,5-dimethylimidazol-1-yl)acetic acid] has an IC50 of 100 to 1000 nM.
For `COC(=O)c1ccc2nc(NC(=O)c3ccc4c(C5CCCCC5)c5n(c4c3)CCOc3ccccc3-5)[nH]c2c1` [Example 2-266, methyl 2-[(12-cyclohexyl-6,7-dihydro-5-oxa-7a-azadibenzo[a,e]azulene-9-carbonyl)amino]-3H-benzimidazole-5-carboxylate], the IC50 was 100 to 1000 nM.
Compound `O=C(Nc1nc2ccccc2[nH]1)c1ccc2c(C3CCCCC3)c3n(c2c1)CCOc1ccccc1-3` [Example 2-267, N-(1H-benzimidazol-2-yl)-12-cyclohexyl-6,7-dihydro-5-oxa-7a-azadibenzo[a,e]azulene-9-carboxamide] has an IC50 of 100 to 1000 nM.
In the case of `O=C(O)c1ccc2nc(NC(=O)c3ccc4c(C5CCCCC5)c5n(c4c3)CCOc3ccccc3-5)[nH]c2c1` [Example 2-268, 2-[(12-cyclohexyl-6,7-dihydro-5-oxa-7a-azadibenzo[a,e]azulene-9-carbonyl)amino]-3H-benzimidazole-5-carboxylic acid], the IC50 is reported as 100 to 1000 nM.
Compound `CC(C)(NC(=O)c1ccc2c(C3CCCCC3)c3n(c2c1)CCOc1ccccc1-3)c1nc2ccc(C#N)cc2[nH]1` [Example 2-269, N-[1-(6-cyano-1H-benzimidazol-2-yl)-1-methylethyl]-12-cyclohexyl-6,7-dihydro-5-oxa-7a-azadibenzo[a,e]azulene-9-carboxamide] has an IC50 of less than 100 nM.
In the case of `COC(=O)[C@@H](NC(=O)c1ccc2c(C3CCCCC3)c3n(c2c1)CCOc1cc(OC)ccc1-3)c1ccc(O)cc1` [Example 2-270, methyl (S)-2-[(12-cyclohexyl-3-methoxy-6,7-dihydro-5-oxa-7a-azadibenzo[a,e]azulene-9-carbonyl)amino]-2-(4-hydroxyphenyl)acetate], the IC50 is reported as less than 100 nM.
For `COC(=O)[C@H](NC(=O)c1ccc2c(C3CCCCC3)c3n(c2c1)CCOc1cc(OC)ccc1-3)c1ccc(O)cc1` [Example 2-271, methyl (R)-2-[(12-cyclohexyl-3-methoxy-6,7-dihydro-5-oxa-7a-azadibenzo[a,e]azulene-9-carbonyl)amino]-2-(4-hydroxyphenyl)acetate], the IC50 was less than 100 nM.

Same assay, conditions: 25° C., 90 min; [5,6-3H]UTP incorporation into RNA; read-out: HCV polymerase inhibitory activity IC50
`CNC(=O)[C@H](Cc1ccc(O)cc1)NC(=O)c1ccc2c(C3CCCCC3)c3n(c2c1)CCOc1ccccc1-3` [Example 2-245, [(S)-2-(4-hydroxyphenyl)-1-(methylcarbamoyl)ethyl]-12-cyclohexyl-6,7-dihydro-5-oxa-7a-azadibenzo[a,e]azulene-9-carboxamide] showed an IC50 of less than 100 nM.

Same assay, conditions: read-out: HCV polymerase inhibitory activity IC50; 25° C., 90 min; [5,6-3H]UTP incorporation into RNA
With `O=C(NC(Cc1c[nH]c2ccc(O)cc12)C(=O)O)c1ccc2c(C3CCCCC3)c3n(c2c1)CCOc1ccccc1-3` (stereo not shown) [Example 2-253] the IC50 was less than 100 nM.
